Where two headings read alike, the source gives them in different places. Residues, ends and D or L forms follow the SMILES beside them.
How the values were obtained:
[1] = In vitro stability in PBS buffer (radiochemical purity); assay type: physicochemical; details: 24 h, paper chromatography
Procedure: The purity of [^125I]I-pHLIP (Var7) was determined by paper chromatography. Normal saline was used as the developing agent, and Xinhua Grade 1 chromatography paper was used as the stationary phase. An appropriate amount of [^125I]I-pHLIP (Var7) eluent was aspirated by a capillary pipette and spotted at the origin of the chromatographic filter paper. After drying, the paper was placed vertically into a test tube containing the developing agent; the unfolded chromatographic filter paper was removed, air dried, and cut at intervals of 1 cm. The radioactivity count was measured segment by segment to calculate the radiochemical purity.
The purified [^125I]I-pHLIP (Var7) was placed at 4°C, at room temperature (25°C) in PBS buffer, and at 37°C in mouse serum. The radiochemical purity at different time points was measured, and the stability was determined. • Two hundred microliters of purified [^125I]I-pHLIP (Var7) solution was placed at 4°C and at room temperature in PBS buffer. Radiochemical purity was determined immediately after purification and at 1, 2, 4, 8, and 24 h after purification • Fifty microliters of purified [^125I]I-pHLIP (Var7) solution was mixed with 100 μL of mouse serum and placed in a 37°C water bath. Radiochemical purity was determined immediately after mixing and at 1, 2, 4, 8, and 24 h after mixing

[2] = Biodistribution in tumor-bearing nude mice; assay type: in vivo; details: female, BALB/c nude, mouse, iv, 1480 kBq/200 uL, total radioactivity, ~1480 kBq/200 μL tail vein, mean ± SD, n = 3; for tissue uptake at 0.5 h: 0.5 h after injection; for tissue uptake at 1 h: 1 h after injection; for tissue uptake at 2 h: 2 h after injection; for tissue uptake at 4 h: 4 h after injection; for tissue uptake at 8 h: 8 h after injection
Procedure: (§1) A mouse model bearing a human breast cancer cell line, MDA-MB-231, was established. MDA-MB-231 cells were cultured using the conventional method. Cells were collected at the logarithmic growth phase and washed once with PBS. The cells were then diluted to prepare suspensions at a concentration of approximately 1 × 10^6 cells/mL, which were temporarily stored in an ice box. Female 4-week-old BALB/c nude mice (16-20 g) were selected. MDA-MB-231 cells were inoculated subcutaneously using a disposable insulin syringe inserted into the right lateral thighs of the nude mice. The number of inoculated cells in each nude mouse was approximately 0.1 mL. The nude mice were raised under specific pathogen-free (SPF) conditions.
Biodistribution experiments were conducted when the tumor diameter was 0.8-1.0 cm. Purified [^125I]I-pHLIP (Var7) was diluted with PBS, and a total of 15 tumor-bearing nude mice with no significant differences in tumor size were randomly divided into five cohorts. Nude mice in each cohort were injected with [^125I]I-pHLIP (Var7) at approximately 1480 kBq/200 μL through the tail vein. At 0.5, 1, 2, 4, and 8 h after injection, blood was collected from the orbital sinus. The mice were sacrificed, and tissues and organs, including the heart, liver, spleen, lung, kidney, pancreas, stomach, small intestine, bladder, thyroid, brain, bone, muscle, and tumors, were collected and weighed. The radioactive count was measured, and the results were converted to %ID/g.

[3] = system: MDA-MB-231 tumor-bearing mice; experiment: Small-animal SPECT/CT imaging; assay type: in vivo, BALB/c nude mice; details: 1 and 2 h after injection; 3.7 MBq/200 μL tail vein; thyroid blocked with 0.1% KI
Procedure: as §1
Imaging was started when the diameter of the tumor grew to 0.8-1.0 cm. Three days before imaging, 3 nude mice began to drink 0.1% KI solution to block the thyroid gland until the end of the experiment. • The machine was calibrated daily • Anesthesia Induction. […] Imaging settings for the SPECT/CT and reconstruction are as follows: the time per frame was 10 min, voxel size was 0.8 mm, number of subsets was 32, and number of iterations was 15 • The injection time, injection dose, and residual dose were recorded according to the tables in the experiment

[4] = bladder, read-out: distribution in bladder
[5] = blood, read-out: distribution in blood
[6] = bone, read-out: distribution in bone
[7] = brain, read-out: distribution in brain
[8] = heart, read-out: distribution in heart
[9] = kidney, read-out: distribution in kidney
[10] = liver, read-out: distribution in liver
[11] = lung, read-out: distribution in lung
[12] = muscle, read-out: distribution in muscle
[13] = pancreas, read-out: distribution in pancreas
[14] = small intestine, read-out: distribution in small intestine
[15] = spleen, read-out: distribution in spleen
[16] = stomach, read-out: distribution in stomach
[17] = thyroid, read-out: distribution in thyroid
[18] = tumor (MDA-MB-231), MDA-MB-231 tumor, read-out: distribution in tumor

stability (radiochemical purity) ([1]; 4°C): higher than 98%
stability (radiochemical purity) ([1]; room temperature (25°C)): higher than 98%
tissue uptake at 0.5 h [2, 4]: 3.8 ± 1.1 %ID/g
tissue uptake at 1 h [2, 4]: 4.3 ± 1.1 %ID/g
tissue uptake at 2 h [2, 4]: 2.1 ± 0.9 %ID/g
tissue uptake at 4 h [2, 4]: 1 ± 0.6 %ID/g
tissue uptake at 8 h [2, 4]: 0.5 ± 0.2 %ID/g
tissue uptake at 0.5 h [2, 5]: 12 ± 1.5 %ID/g
tissue uptake at 1 h [2, 5]: 6.5 ± 1.5 %ID/g
tissue uptake at 2 h [2, 5]: 2.8 ± 0.6 %ID/g
tissue uptake at 4 h [2, 5]: 1.2 ± 0.5 %ID/g
tissue uptake at 8 h [2, 5]: 0.5 ± 0.1 %ID/g
tissue uptake at 0.5 h [2, 6]: 2.9 ± 0.3 %ID/g
tissue uptake at 1 h [2, 6]: 2.8 ± 0.1 %ID/g
tissue uptake at 2 h [2, 6]: 1.5 ± 0.5 %ID/g
tissue uptake at 4 h [2, 6]: 0.7 ± 0.2 %ID/g
tissue uptake at 8 h [2, 6]: 0.2 ± 0.1 %ID/g
tissue uptake at 0.5 h [2, 7]: 0.6 ± 0.1 %ID/g
tissue uptake at 1 h [2, 7]: 0.5 ± 0.1 %ID/g
tissue uptake at 2 h [2, 7]: 0.3 ± 0.1 %ID/g
tissue uptake at 4 h [2, 7]: 0.1 ± 0.1 %ID/g
tissue uptake at 8 h [2, 7]: 0.1 ± 0.1 %ID/g
tissue uptake at 0.5 h [2, 8]: 4.1 ± 0.5 %ID/g
tissue uptake at 1 h [2, 8]: 3.9 ± 0.7 %ID/g
tissue uptake at 2 h [2, 8]: 2 ± 0.4 %ID/g
tissue uptake at 4 h [2, 8]: 1.1 ± 1.1 %ID/g
tissue uptake at 8 h [2, 8]: 0.5 ± 0.3 %ID/g
tissue uptake at 0.5 h [2, 9]: 4.2 ± 0.6 %ID/g
tissue uptake at 1 h [2, 9]: 5.1 ± 1.1 %ID/g
tissue uptake at 2 h [2, 9]: 2.3 ± 0.8 %ID/g
tissue uptake at 4 h [2, 9]: 1.2 ± 0.4 %ID/g
tissue uptake at 8 h [2, 9]: 0.5 ± 0.2 %ID/g
tissue uptake at 0.5 h [2, 10]: 13.9 ± 2.7 %ID/g
tissue uptake at 1 h [2, 10]: 8 ± 1.9 %ID/g
tissue uptake at 2 h [2, 10]: 4 ± 0.6 %ID/g
tissue uptake at 4 h [2, 10]: 1.8 ± 0.2 %ID/g
tissue uptake at 8 h [2, 10]: 0.7 ± 0.2 %ID/g
tissue uptake at 0.5 h [2, 11]: 3.4 ± 1.2 %ID/g
tissue uptake at 1 h [2, 11]: 2.5 ± 1 %ID/g
tissue uptake at 2 h [2, 11]: 1.2 ± 0.5 %ID/g
tissue uptake at 4 h [2, 11]: 0.5 ± 0.3 %ID/g
tissue uptake at 8 h [2, 11]: 0.2 ± 0.1 %ID/g
tissue uptake at 0.5 h [2, 12]: 1.7 ± 0.6 %ID/g
tissue uptake at 1 h [2, 12]: 1.4 ± 0.8 %ID/g
tissue uptake at 2 h [2, 12]: 0.6 ± 0.2 %ID/g
tissue uptake at 4 h [2, 12]: 0.2 ± 0.1 %ID/g
tissue uptake at 8 h [2, 12]: 0.1 ± 0.1 %ID/g
tissue uptake at 0.5 h [2, 13]: 3.3 ± 0.8 %ID/g
tissue uptake at 1 h [2, 13]: 4.1 ± 1.2 %ID/g
tissue uptake at 2 h [2, 13]: 2.1 ± 0.6 %ID/g
tissue uptake at 4 h [2, 13]: 0.9 ± 0.3 %ID/g
tissue uptake at 8 h [2, 13]: 0.3 ± 0.1 %ID/g
tissue uptake at 0.5 h [2, 14]: 3.3 ± 1.5 %ID/g
tissue uptake at 1 h [2, 14]: 4.2 ± 0.6 %ID/g
tissue uptake at 2 h [2, 14]: 2.8 ± 1 %ID/g
tissue uptake at 4 h [2, 14]: 1.3 ± 0.5 %ID/g
tissue uptake at 8 h [2, 14]: 0.4 ± 0.1 %ID/g
tissue uptake at 0.5 h [2, 15]: 3 ± 1.1 %ID/g
tissue uptake at 1 h [2, 15]: 3 ± 0.6 %ID/g
tissue uptake at 2 h [2, 15]: 1.4 ± 0.4 %ID/g
tissue uptake at 4 h [2, 15]: 0.7 ± 0.2 %ID/g
tissue uptake at 8 h [2, 15]: 0.3 ± 0.1 %ID/g
tissue uptake at 0.5 h [2, 16]: 4.7 ± 1.2 %ID/g
tissue uptake at 1 h [2, 16]: 5.1 ± 1.2 %ID/g
tissue uptake at 2 h [2, 16]: 4.3 ± 1 %ID/g
tissue uptake at 4 h [2, 16]: 2.2 ± 0.8 %ID/g
tissue uptake at 8 h [2, 16]: 0.7 ± 0.2 %ID/g
tissue uptake at 0.5 h [2, 17]: 4.3 ± 1.7 %ID/g
tissue uptake at 1 h [2, 17]: 5.6 ± 1.4 %ID/g
tissue uptake at 2 h [2, 17]: 3.4 ± 1 %ID/g
tissue uptake at 4 h [2, 17]: 1.6 ± 0.8 %ID/g
tissue uptake at 8 h [2, 17]: 0.8 ± 0.4 %ID/g
tissue uptake at 0.5 h [2, 18]: 3.6 ± 0.5 %ID/g
tissue uptake at 1 h [2, 18]: 6.9 ± 0.4 %ID/g
tissue uptake at 2 h [2, 18]: 3.6 ± 0.7 %ID/g
tissue uptake at 4 h [2, 18]: 2 ± 0.6 %ID/g
tissue uptake at 8 h [2, 18]: 1 ± 0.4 %ID/g
Structure (SMILES): CC(C)C[C@H](NC(=O)[C@H](CCC(=O)O)NC(=O)[C@H](CC(C)C)NC(=O)[C@H](CC(C)C)NC(=O)[C@H](CC(C)C)NC(=O)[C@@H](NC(=O)[C@H](CCC(=O)O)NC(=O)[C@@H](NC(=O)[C@@H]1CCCN1C(=O)[C@H](Cc1ccccc1)NC(=O)[C@H](CC(C)C)NC(=O)[C@H](Cc1c[nH]c2ccccc12)NC(=O)[C@H](CCC(=O)O)NC(=O)[C@H](CC(C)C)NC(=O)[C@H](Cc1ccc(O)c(I)c1)NC(=O)[C@H](CCCNC(=N)N)NC(=O)[C@H](C)NC(=O)[C@H](Cc1c[nH]c2ccccc12)NC(=O)[C@@H]1CCCN1C(=O)[C@H](CC(N)=O)NC(=O)[C@H](CCC(N)=O)NC(=O)[C@H](CCC(=O)O)NC(=O)[C@H](CCC(=O)O)NC(=O)[C@H](C)N)[C@@H](C)O)[C@@H](C)O)C(N)=O [[^125I]I-pHLIP (Var7)] (HELM PEPTIDE1{A.E.E.Q.N.P.W.A.R.[O=C([C@H](Cc1ccc(O)c(I)c1)N[*:1])[*:2]].L.E.W.L.F.P.T.E.T.L.L.L.E.L.[am]}$$$$V2.0)
tumor visibility on SPECT/CT [3]: clearly visible tumors
